Legend:
Protease [1] = biological target: T1, Protease (Human immunodeficiency virus 1, UniProt Q9YQ12); assay: Inhibition of wild type HIV1 protease by uncompetitive binding
Protease [2] = biological target: T1, Protease; assay: Inhibition of wild type HIV1 protease by competitive binding

## CC(C)CN(C[C@@H](O)[C@H](Cc1ccccc1)NC(=O)O[C@H]1CCOC1)S(=O)(=O)c1ccc(N)cc1
Protease [1]
  Ki: 28 nM
Protease [2]
  Ki: 6.2 nM

From ChEMBL document CHEMBL1140144 (J Med Chem, 2008)
